What follows are molecules tested on CAL-120 (assay: normalised response (% of control), CellTiter-Glo; higher = more viable cells (100 = DMSO, 0 = benzethonium chloride kill control)). Conditions: incubation time: 72 h.
Procedure, shortened: (§1)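 A 20 µl suspension of breast cancer cells was seeded into each well of 384-well plates containing compound at 5 concentrations in 10-fold steps over a compound-specific 10,000-fold range. After 72 h incubation, CellTox Green fluorescence (485/520 nm) was read first, and CellTiter-Glo luminescence was read after 10 min at room temperature. Each plate was normalised against 0.1 % DMSO (100) and a positive kill control (0), and each value is the normalised signal at one concentration.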

SMILES	normalised response
Cn1c(=O)c(F)c(Nc2ccc(I)cc2F)c2c(=O)n(C[C@@H](O)CO)cnc21 [TAK-733] (0.1 nM)	98%
COC(=O)C[C@](O)(CCCC(C)(C)O)C(=O)O[C@@H]1C(OC)=C[C@]23CCCN2CCc2cc4c(cc2[C@H]13)OCO4 [Omacetaxine] (1 nM)	99.8%
CC(C)(C)c1cc(NC(=O)Nc2ccc(-c3cn4c(n3)sc3cc(OCCN5CCOCC5)ccc34)cc2)no1 [Quizartinib] (0.1 nM)	103%
C[C@@H]1C=C2C(=O)O[C@@H]3CC[C@H](C1)[C@]23O [Galiellalactone] (5 nM)	105%

What follows are molecules tested on MDA-MB-468 in the same assay as above. Conditions: incubation time: 72 h.
Procedure, shortened: as §1

SMILES	normalised response
CCS(=O)(=O)c1cccc(-c2cc(C(=O)NC3CCN(C)CC3)c(C)c3[nH]c4ncc(C)cc4c23)c1 [TAK-901] (0.1 nM)	100%
C#Cc1cccc(Nc2ncnc3cc(OC)c(OCCCCCCC(=O)NO)cc23)c1 [CUDC-101] (1 nM)	93.8%
CC(C)C[C@H](NC(=O)[C@H](Cc1ccccc1)NC(=O)c1cnccn1)B(O)O [Bortezomib] (0.1 nM)	89.8%
COc1ccc(C2=N[C@@H](c3ccc(Cl)cc3)[C@@H](c3ccc(Cl)cc3)N2C(=O)N2CCNC(=O)C2)c(OC(C)C)c1 [Nutlin-3] (1 nM)	98.6%
Cn1c(=O)c(F)c(Nc2ccc(I)cc2F)c2c(=O)n(C[C@@H](O)CO)cnc21 [TAK-733] (0.1 nM)	102%
COC(=O)C[C@](O)(CCCC(C)(C)O)C(=O)O[C@@H]1C(OC)=C[C@]23CCCN2CCc2cc4c(cc2[C@H]13)OCO4 [Omacetaxine] (1 nM)	108%
CC(C)(C)c1cc(NC(=O)Nc2ccc(-c3cn4c(n3)sc3cc(OCCN5CCOCC5)ccc34)cc2)no1 [Quizartinib] (0.1 nM)	107%
C[C@@H]1C=C2C(=O)O[C@@H]3CC[C@H](C1)[C@]23O [Galiellalactone] (5 nM)	108%

What follows are molecules tested on HCC1143 in the same assay as above. Conditions: incubation time: 72 h.
Procedure, shortened: as §1

SMILES	normalised response
CCS(=O)(=O)c1cccc(-c2cc(C(=O)NC3CCN(C)CC3)c(C)c3[nH]c4ncc(C)cc4c23)c1 [TAK-901] (0.1 nM)	108%
C#Cc1cccc(Nc2ncnc3cc(OC)c(OCCCCCCC(=O)NO)cc23)c1 [CUDC-101] (1 nM)	102%
CC(C)C[C@H](NC(=O)[C@H](Cc1ccccc1)NC(=O)c1cnccn1)B(O)O [Bortezomib] (0.1 nM)	100%
COc1ccc(C2=N[C@@H](c3ccc(Cl)cc3)[C@@H](c3ccc(Cl)cc3)N2C(=O)N2CCNC(=O)C2)c(OC(C)C)c1 [Nutlin-3] (1 nM)	103%
Cn1c(=O)c(F)c(Nc2ccc(I)cc2F)c2c(=O)n(C[C@@H](O)CO)cnc21 [TAK-733] (0.1 nM)	102%
COC(=O)C[C@](O)(CCCC(C)(C)O)C(=O)O[C@@H]1C(OC)=C[C@]23CCCN2CCc2cc4c(cc2[C@H]13)OCO4 [Omacetaxine] (1 nM)	109%
CC(C)(C)c1cc(NC(=O)Nc2ccc(-c3cn4c(n3)sc3cc(OCCN5CCOCC5)ccc34)cc2)no1 [Quizartinib] (0.1 nM)	100%
C[C@@H]1C=C2C(=O)O[C@@H]3CC[C@H](C1)[C@]23O [Galiellalactone] (5 nM)	105%

What follows are molecules tested on CAL-148 in the same assay as above. Conditions: incubation time: 72 h.
Procedure, shortened: as §1

SMILES	normalised response
CCS(=O)(=O)c1cccc(-c2cc(C(=O)NC3CCN(C)CC3)c(C)c3[nH]c4ncc(C)cc4c23)c1 [TAK-901] (0.1 nM)	101%
C#Cc1cccc(Nc2ncnc3cc(OC)c(OCCCCCCC(=O)NO)cc23)c1 [CUDC-101] (1 nM)	98.2%
CC(C)C[C@H](NC(=O)[C@H](Cc1ccccc1)NC(=O)c1cnccn1)B(O)O [Bortezomib] (0.1 nM)	95.7%
COc1ccc(C2=N[C@@H](c3ccc(Cl)cc3)[C@@H](c3ccc(Cl)cc3)N2C(=O)N2CCNC(=O)C2)c(OC(C)C)c1 [Nutlin-3] (1 nM)	115%
Cn1c(=O)c(F)c(Nc2ccc(I)cc2F)c2c(=O)n(C[C@@H](O)CO)cnc21 [TAK-733] (0.1 nM)	104%
COC(=O)C[C@](O)(CCCC(C)(C)O)C(=O)O[C@@H]1C(OC)=C[C@]23CCCN2CCc2cc4c(cc2[C@H]13)OCO4 [Omacetaxine] (1 nM)	110%
CC(C)(C)c1cc(NC(=O)Nc2ccc(-c3cn4c(n3)sc3cc(OCCN5CCOCC5)ccc34)cc2)no1 [Quizartinib] (0.1 nM)	110%
C[C@@H]1C=C2C(=O)O[C@@H]3CC[C@H](C1)[C@]23O [Galiellalactone] (5 nM)	107%

These molecules were tested on MDA-MB-453 in the same assay as above. Conditions: incubation time: 72 h.
Procedure, shortened: as §1

SMILES	normalised response
CCS(=O)(=O)c1cccc(-c2cc(C(=O)NC3CCN(C)CC3)c(C)c3[nH]c4ncc(C)cc4c23)c1 [TAK-901] (0.1 nM)	117%
C#Cc1cccc(Nc2ncnc3cc(OC)c(OCCCCCCC(=O)NO)cc23)c1 [CUDC-101] (1 nM)	108%
CC(C)C[C@H](NC(=O)[C@H](Cc1ccccc1)NC(=O)c1cnccn1)B(O)O [Bortezomib] (0.1 nM)	103%
COc1ccc(C2=N[C@@H](c3ccc(Cl)cc3)[C@@H](c3ccc(Cl)cc3)N2C(=O)N2CCNC(=O)C2)c(OC(C)C)c1 [Nutlin-3] (1 nM)	114%
Cn1c(=O)c(F)c(Nc2ccc(I)cc2F)c2c(=O)n(C[C@@H](O)CO)cnc21 [TAK-733] (0.1 nM)	115%
COC(=O)C[C@](O)(CCCC(C)(C)O)C(=O)O[C@@H]1C(OC)=C[C@]23CCCN2CCc2cc4c(cc2[C@H]13)OCO4 [Omacetaxine] (1 nM)	121%
CC(C)(C)c1cc(NC(=O)Nc2ccc(-c3cn4c(n3)sc3cc(OCCN5CCOCC5)ccc34)cc2)no1 [Quizartinib] (0.1 nM)	105%
C[C@@H]1C=C2C(=O)O[C@@H]3CC[C@H](C1)[C@]23O [Galiellalactone] (5 nM)	108%

What follows are molecules tested on MFM-223 in the same assay as above. Conditions: incubation time: 72 h.
Procedure, shortened: as §1

SMILES	normalised response
CCS(=O)(=O)c1cccc(-c2cc(C(=O)NC3CCN(C)CC3)c(C)c3[nH]c4ncc(C)cc4c23)c1 [TAK-901] (0.1 nM)	106%
C#Cc1cccc(Nc2ncnc3cc(OC)c(OCCCCCCC(=O)NO)cc23)c1 [CUDC-101] (1 nM)	98.5%
CC(C)C[C@H](NC(=O)[C@H](Cc1ccccc1)NC(=O)c1cnccn1)B(O)O [Bortezomib] (0.1 nM)	103%
COc1ccc(C2=N[C@@H](c3ccc(Cl)cc3)[C@@H](c3ccc(Cl)cc3)N2C(=O)N2CCNC(=O)C2)c(OC(C)C)c1 [Nutlin-3] (1 nM)	101%
Cn1c(=O)c(F)c(Nc2ccc(I)cc2F)c2c(=O)n(C[C@@H](O)CO)cnc21 [TAK-733] (0.1 nM)	108%
COC(=O)C[C@](O)(CCCC(C)(C)O)C(=O)O[C@@H]1C(OC)=C[C@]23CCCN2CCc2cc4c(cc2[C@H]13)OCO4 [Omacetaxine] (1 nM)	103%
CC(C)(C)c1cc(NC(=O)Nc2ccc(-c3cn4c(n3)sc3cc(OCCN5CCOCC5)ccc34)cc2)no1 [Quizartinib] (0.1 nM)	108%
C[C@@H]1C=C2C(=O)O[C@@H]3CC[C@H](C1)[C@]23O [Galiellalactone] (5 nM)	107%

The molecules below were run on HCC1937 in the same assay as above. Conditions: incubation time: 72 h.
Procedure, shortened: as §1

SMILES	normalised response
CCS(=O)(=O)c1cccc(-c2cc(C(=O)NC3CCN(C)CC3)c(C)c3[nH]c4ncc(C)cc4c23)c1 [TAK-901] (0.1 nM)	91.8%
C#Cc1cccc(Nc2ncnc3cc(OC)c(OCCCCCCC(=O)NO)cc23)c1 [CUDC-101] (1 nM)	96.6%
CC(C)C[C@H](NC(=O)[C@H](Cc1ccccc1)NC(=O)c1cnccn1)B(O)O [Bortezomib] (0.1 nM)	96.2%
COc1ccc(C2=N[C@@H](c3ccc(Cl)cc3)[C@@H](c3ccc(Cl)cc3)N2C(=O)N2CCNC(=O)C2)c(OC(C)C)c1 [Nutlin-3] (1 nM)	103%
Cn1c(=O)c(F)c(Nc2ccc(I)cc2F)c2c(=O)n(C[C@@H](O)CO)cnc21 [TAK-733] (0.1 nM)	100%
COC(=O)C[C@](O)(CCCC(C)(C)O)C(=O)O[C@@H]1C(OC)=C[C@]23CCCN2CCc2cc4c(cc2[C@H]13)OCO4 [Omacetaxine] (1 nM)	98.3%
CC(C)(C)c1cc(NC(=O)Nc2ccc(-c3cn4c(n3)sc3cc(OCCN5CCOCC5)ccc34)cc2)no1 [Quizartinib] (0.1 nM)	103%
C[C@@H]1C=C2C(=O)O[C@@H]3CC[C@H](C1)[C@]23O [Galiellalactone] (5 nM)	98%

Each molecule was assayed on BT-549 in the same assay as above. Conditions: incubation time: 72 h.
Procedure, shortened: as §1

SMILES	normalised response
CCS(=O)(=O)c1cccc(-c2cc(C(=O)NC3CCN(C)CC3)c(C)c3[nH]c4ncc(C)cc4c23)c1 [TAK-901] (0.1 nM)	106%
C#Cc1cccc(Nc2ncnc3cc(OC)c(OCCCCCCC(=O)NO)cc23)c1 [CUDC-101] (1 nM)	101%
CC(C)C[C@H](NC(=O)[C@H](Cc1ccccc1)NC(=O)c1cnccn1)B(O)O [Bortezomib] (0.1 nM)	91.5%
COc1ccc(C2=N[C@@H](c3ccc(Cl)cc3)[C@@H](c3ccc(Cl)cc3)N2C(=O)N2CCNC(=O)C2)c(OC(C)C)c1 [Nutlin-3] (1 nM)	97.7%
Cn1c(=O)c(F)c(Nc2ccc(I)cc2F)c2c(=O)n(C[C@@H](O)CO)cnc21 [TAK-733] (0.1 nM)	91.8%
COC(=O)C[C@](O)(CCCC(C)(C)O)C(=O)O[C@@H]1C(OC)=C[C@]23CCCN2CCc2cc4c(cc2[C@H]13)OCO4 [Omacetaxine] (1 nM)	92.1%
CC(C)(C)c1cc(NC(=O)Nc2ccc(-c3cn4c(n3)sc3cc(OCCN5CCOCC5)ccc34)cc2)no1 [Quizartinib] (0.1 nM)	96.2%
C[C@@H]1C=C2C(=O)O[C@@H]3CC[C@H](C1)[C@]23O [Galiellalactone] (5 nM)	101%

What follows are molecules tested on Hs578T in the same assay as above. Conditions: incubation time: 72 h.
Procedure, shortened: as §1

SMILES	normalised response
CCS(=O)(=O)c1cccc(-c2cc(C(=O)NC3CCN(C)CC3)c(C)c3[nH]c4ncc(C)cc4c23)c1 [TAK-901] (0.1 nM)	111%
C#Cc1cccc(Nc2ncnc3cc(OC)c(OCCCCCCC(=O)NO)cc23)c1 [CUDC-101] (1 nM)	101%
CC(C)C[C@H](NC(=O)[C@H](Cc1ccccc1)NC(=O)c1cnccn1)B(O)O [Bortezomib] (0.1 nM)	104%
COc1ccc(C2=N[C@@H](c3ccc(Cl)cc3)[C@@H](c3ccc(Cl)cc3)N2C(=O)N2CCNC(=O)C2)c(OC(C)C)c1 [Nutlin-3] (1 nM)	103%
Cn1c(=O)c(F)c(Nc2ccc(I)cc2F)c2c(=O)n(C[C@@H](O)CO)cnc21 [TAK-733] (0.1 nM)	101%
COC(=O)C[C@](O)(CCCC(C)(C)O)C(=O)O[C@@H]1C(OC)=C[C@]23CCCN2CCc2cc4c(cc2[C@H]13)OCO4 [Omacetaxine] (1 nM)	101%
CC(C)(C)c1cc(NC(=O)Nc2ccc(-c3cn4c(n3)sc3cc(OCCN5CCOCC5)ccc34)cc2)no1 [Quizartinib] (0.1 nM)	99.8%
C[C@@H]1C=C2C(=O)O[C@@H]3CC[C@H](C1)[C@]23O [Galiellalactone] (5 nM)	107%

What follows are molecules tested on MDA-MB-436 in the same assay as above. Conditions: incubation time: 72 h.
Procedure, shortened: as §1

SMILES	normalised response
CCS(=O)(=O)c1cccc(-c2cc(C(=O)NC3CCN(C)CC3)c(C)c3[nH]c4ncc(C)cc4c23)c1 [TAK-901] (0.1 nM)	93.8%
C#Cc1cccc(Nc2ncnc3cc(OC)c(OCCCCCCC(=O)NO)cc23)c1 [CUDC-101] (1 nM)	98.6%
CC(C)C[C@H](NC(=O)[C@H](Cc1ccccc1)NC(=O)c1cnccn1)B(O)O [Bortezomib] (0.1 nM)	93.4%
COc1ccc(C2=N[C@@H](c3ccc(Cl)cc3)[C@@H](c3ccc(Cl)cc3)N2C(=O)N2CCNC(=O)C2)c(OC(C)C)c1 [Nutlin-3] (1 nM)	119%
Cn1c(=O)c(F)c(Nc2ccc(I)cc2F)c2c(=O)n(C[C@@H](O)CO)cnc21 [TAK-733] (0.1 nM)	96.2%
COC(=O)C[C@](O)(CCCC(C)(C)O)C(=O)O[C@@H]1C(OC)=C[C@]23CCCN2CCc2cc4c(cc2[C@H]13)OCO4 [Omacetaxine] (1 nM)	97.1%

Source: the supplement of paper PMC4862054
